According to patent US20260256771A1, “GALUNISERTIB FOR USE IN THE TREATMENT OF ANDROGENIC ALOPECIA” (SAÚDE VIÁVEL, S.A., priority 2022, published 2026):

Legend:
TGFβ2 = test: qRT-PCR of TGFβ transcripts in dermal papilla isolated from HFOCs; format: cell-based, human; conditions: DP isolated from human HFs cultured ex vivo for 48 h; DHT-treated (1 μM) vs. untreated HFOCs
Description: Concentration and purity are ascertained in a NanoDrop spectrophotometer.
(§1) In addition, only anagen hair follicles are used.
(§2) Hair growth percentages is normalized to day 0.

TGFβ1 = conditions: DP isolated from human HFs cultured ex vivo for 48 h; DHT-treated (1 μM) vs. untreated HFOCs
Protocol: (§3) For RNA isolation and Quantitative Real-Time PCR (qPCR), Qiagen RNeasy kit (Qiagen, Germany) is used to isolate RNA. Concentration and purity are ascertained in a NanoDrop spectrophotometer. 600 ng of RNA are reverse transcribed into complementary DNA with iScript™ cDNA Synthesis Kit. Quantitative real-time polymerase chain reactions (qPCRs) are performed in a CFX384 Touch™ Real-Time PCR Detection System (Bio-Rad Laboratories). 10 μl reaction mixes are prepared consisting of iTaq™ Universal SYBR® Green Supermix (Bio-Rad Laboratories), forward and reverse primers (at 125 nM each) and cDNA (30 ng). The amplification program used is: 95° C. for 3 min, followed by 39 cycles of 95° C. for 10 s, 60° C. for 35 s, and melt curve from 55° C. to 95° C. with 0.5° C. increment for 10 s. All primers are designed to span at least one […]. Transcript levels are quantified by the 2-ΔΔCt method. ΔCt values are determined by subtracting the geometrical mean of the Ct values for GAPDH and UBQ from the mean target gene Ct value.
(§4) Hair grafts are obtained from male patients aged between 18-55 years with informed consent. A total of 10-20 micrografts are harvested from the occipital scalp of patients diagnosed with androgenic alopecia and undergoing autologous hair transplantation by the routine FUE technique.

TGFβ3 = conditions: DP isolated from human HFs cultured ex vivo for 48 h; DHT-treated (1 μM) vs. untreated HFOCs
Protocol: as §3, §4

[1] = tested on: phosphorylated SMAD2 (p-SMAD2); test: Western blot of phospho-SMAD2 in hair bulbs of HFOCs; format: cell-based, human; conditions: untreated vs DHT-treated HFOCs, 72 h
Protocol: For western blot, hair bulbs are dissected from HFOCs treated with DMSO, DHT and Galunisertib for 72 h. Upon rinse in PBS, hair bulbs are lysed in Laemmli buffer (without bromophenol blue) with Halt Protease Inhibitor Cocktail and Halt Phosphatase Inhibitor Cocktail, and lysates are sonicated. Lysates from 10 hair bulbs are used for each condition tested. Total extracts are then loaded in SDS-polyacrylamide gels and transferred onto nitrocellulose membranes for western blot analysis. Membranes are blocked during 1 h with TBS+5% BSA. Primary and secondary antibodies are diluted in TBS+2% BSA accordingly to Supplementary Table 1. Signal is detected using Clarity Western ECL Substrate reagent. A GS-800 calibrated densitometer with Quantity One 1-D Analysis Software 4.6 (Bio-Rad Laboratories) is used for quantitative analysis of protein levels.
as §1, §2

## C[C@]12CCC(=O)C[C@@H]1CC[C@@H]1[C@@H]2CC[C@]2(C)[C@@H](O)CC[C@@H]12 [DHT, dihydrotestosterone]
TGFβ2
  TGFβ2 transcript levels in DP: slightly increased
TGFβ1
  TGFβ1 transcript levels in DP: remaining unchanged
TGFβ3
  TGFβ3 transcript levels in DP: remaining unchanged
[1]
  p-SMAD2 protein levels in hair bulbs: equivalent
